From US20090221559A1 (priority 2005, published 2009)
Like-named read-outs stand apart in the source and are kept apart here.

What was measured:
[1] = test system: HCV replicon RNA replication in Huh-7 luc/neo (Huh-Luc) cells; experiment: HCV replicon assay (stable replicon cell reporter assay, luciferase read-out); type: cell-based, HCV type 1b
How it was run: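 Three-day compound exposure used Huh-Luc cells, which harbour an autonomously replicating genotype 1b NS3-NS5B replicon expressing luciferase and neo^R. Luciferase signal served as the replication read-out, and dose-response curves came from several concentrations per compound.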

[2] = target: T1, HCV NS5B polymerase (His-tagged, C-terminal 21 amino acid deleted NS5B, HC-J4) (Hepatitis C virus genotype 1b, UniProt O92972); experiment: NS5b polymerase assay (biochemical RdRp assay, 3H-GTP incorporation, SPA beads); set-up: species or system HCV genotype 1b
T1 construct: The cDNA encoding NS5B amino acid 1-570 (HC-J4, genotype 1b); His tag (His6, from pET-21b) (C); made in house; host or cells: E. coli BL21 (DE3)
How it was run: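 3H-GTP incorporation into newly made RNA was captured on SPA beads added in EDTA after 2 h at 25 °C. Compounds in DMSO met preformed enzyme–template complex (200 nM truncated His-NS5B, HC-J4 1b; biotin-oligo(rG13)/poly(rC)) for 15 min at RT, then 600 nM GTP, 5 mM MgCl2, Tris pH 7.5 started polymerization.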

[3] = Hepatitis C virus, Huh-7, 72 h, read-out: Replicon Assay EC50, Huh-Luc cells, three days incubation, luciferase activity
[4] = NS5B Polymerase Assay IC50, 200 nM enzyme, 3H-GTP incorporation, 2 h at 25° C.
[5] = Hepatitis C virus, Huh-7, 72 h, read-out: Replicon Assay EC50 (μM), Huh-Luc cells, incubation of three days, luciferase activity
[6] = NS5B Polymerase Assay IC50 (μM)
[7] = Huh-Luc cells, three days incubation, luciferase activity, read-out: Replicon Assay EC50
[8] = 200 nM enzyme, 3H-GTP incorporation, 2 h at 25° C., read-out: NS5B Polymerase Assay IC50

T1 sequence (O92972 2417-3000, looked up, stated change not applied): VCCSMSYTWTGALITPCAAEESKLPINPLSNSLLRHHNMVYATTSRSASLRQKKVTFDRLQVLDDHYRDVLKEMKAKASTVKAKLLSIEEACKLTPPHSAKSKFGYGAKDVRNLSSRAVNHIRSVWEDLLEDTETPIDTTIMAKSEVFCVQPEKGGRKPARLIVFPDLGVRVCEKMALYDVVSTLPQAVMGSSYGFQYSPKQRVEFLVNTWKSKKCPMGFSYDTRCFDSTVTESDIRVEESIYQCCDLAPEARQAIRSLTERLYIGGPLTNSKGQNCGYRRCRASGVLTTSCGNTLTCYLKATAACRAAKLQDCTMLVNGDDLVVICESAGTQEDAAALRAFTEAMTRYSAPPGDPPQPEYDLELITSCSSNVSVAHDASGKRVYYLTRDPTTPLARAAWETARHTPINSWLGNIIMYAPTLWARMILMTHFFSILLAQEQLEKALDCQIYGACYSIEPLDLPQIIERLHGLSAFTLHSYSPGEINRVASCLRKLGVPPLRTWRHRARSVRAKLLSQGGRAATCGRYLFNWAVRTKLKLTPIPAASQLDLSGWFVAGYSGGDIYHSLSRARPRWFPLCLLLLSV

| Compound | EC50 [1, 3] | IC50 [2, 4] | EC50 [1, 5] | IC50 [2, 6] | other results |
| --- | --- | --- | --- | --- | --- |
| CC(=O)N1c2ccccc2NC2=C(C(=O)CC(C)(C)C2)C1c1ccc(O)cc1 (stereo not drawn) [compound 137, 10-acetyl-11-(4-hydroxyphenyl)-3,3-dimethyl-2,3,4,5,10,11-hexahydro-1H-dibenzo[b,e][1,4]diazepin-1-one] | > 100 µM | > 133 µM | – | – | – |
| COc1ccc([C@@H]2CC(=O)C3=C(C2)Nc2ccccc2N[C@H]3c2coc3ccccc3c2=O)cc1OC [compound 495] | – | – | 3.69 µM | > 42.7 µM | – |
| CCOc1cc(C2Nc3ccccc3NC3=C2C(=O)CC(c2ccc(OC)cc2)C3)cc(Br)c1OC (stereo not drawn) [compound 406] | – | – | 7.29 µM | > 42.7 µM | – |
| COc1ccc(C2CC(=O)C3=C(C2)Nc2ccccc2N(C(C)=O)C3c2ccc(Cl)cc2)cc1 (stereo not drawn) [compound 165] | – | – | – | – | EC50 [1, 7]: 18.6 µM; IC50 [2, 8]: > 33.3 µM |
| CC(=O)N1c2ccccc2NC2=C(C(=O)CC(C)(C)C2)C1c1c(Cl)cccc1Cl (stereo not drawn) [compound 50] | > 32 µM | > 42.7 µM | – | – | – |
| CCCCCC(=O)N1c2ccccc2NC2=C(C(=O)CC(c3ccc(OC)c(OC)c3)C2)C1c1ccc(Cl)cc1 (mixture of isomers) [compound 185] | – | – | – | – | EC50 [1, 7]: 4.79 µM; IC50 [2, 8]: > 33.3 µM |
| CC(=O)N1c2ccccc2NC2=C(C(=O)CC(c3ccccc3F)C2)C1c1ccccc1 (stereo not drawn) [compound 236] | – | – | – | – | EC50 [1, 7]: 11.8 µM; IC50 [2, 8]: > 42.7 µM |
| Cc1ccc(C2C3=C(CC(C)(C)CC3=O)Nc3ccccc3N2C(=O)Cc2ccccc2)o1 (stereo not drawn) [compound 271] | 22.9 µM | > 33.3 µM | – | – | – |
| COc1ccc(C2C3=C(CC(C)(C)CC3=O)Nc3ccccc3N2C(C)=O)cc1OC (stereo not drawn) [compound 119] | > 32 µM | > 42.7 µM | – | – | – |
| CC(=O)N1c2ccccc2NC2=C(C(=O)CC(C)(C)C2)C1c1cccc(Cl)c1Cl (stereo not drawn) [compound 29] | 6.79 µM | > 42.7 µM | – | – | – |
| CCOc1cc(C2Nc3ccccc3NC3=C2C(=O)CC(c2ccc(Cl)cc2)C3)cc(Br)c1O (stereo not drawn) [compound 353] | – | – | 5.3 µM | > 42.7 µM | – |
| CC(=O)N1c2ccccc2NC2=C(C(=O)CC(C)(C)C2)C1c1cccnc1 (stereo not drawn) [compound 258] | > 32 µM | > 42.7 µM | – | – | – |
| CC1(C)CC(=O)C2=C(C1)Nc1ccccc1NC2c1cccc(OCc2ccccc2)c1 (stereo not drawn) [compound 437, 11-(3-benzyloxyphenyl)-3,3-dimethyl-2,3,4,5,10,11-hexahydro-1H-dibenzo[b,e][1,4]diazepin-1-one] | – | – | 6.35 µM | 32.9 µM | – |
| CC(=O)N1c2ccccc2NC2=C(C(=O)CC(C)(C)C2)C1c1ccc(Cl)cc1Cl (single isomer, unassigned) [compound 36, 10-Acetyl-11-(2,4-dichlorophenyl)-2,3,4,5,10,11-hexahydro-3,3-dimethyl-1H-dibenzo[b,e][1,4]diazepin-1-one] | 17 µM | > 41.3 µM | – | – | – |
| CC1(C)CC(=O)C2=C(C1)Nc1ccccc1N(C(=O)C(F)(F)F)C2c1ccco1 (stereo not drawn) [compound 276] | > 32 µM | > 42.7 µM | – | – | – |
| CC(=O)N1c2ccccc2NC2=C(C(=O)CC(c3ccccc3OCc3ccccc3)C2)C1c1cccc(OC(=O)c2ccc(Cl)cc2)c1 (single isomer, unassigned) [compound 191, 10-Acetyl-3-(2-benzyloxyphenyl)-11-[3-(4-chlorobenzoyloxy)phenyl]-2,3,4,5,10,11-hexahydro-dibenzo[b,e][1,4]diazepin-1-one] | 2.88 µM | > 42.7 µM | – | – | – |
| CC1(C)CC(=O)C2=C(C1)Nc1ccccc1N(C(=O)c1ccccc1)C2c1ccccc1Cl (stereo not drawn) [compound 70] | 14.6 µM | > 42.7 µM | – | – | – |
| COc1ccc([C@@H]2CC(=O)C3=C(C2)Nc2ccccc2N[C@H]3c2cc3c(cc2[N+](=O)[O-])OCO3)cc1 [compound 485] | – | – | 3.39 µM | > 42.7 µM | – |
| CCCCC(=O)N1c2ccccc2NC2=C(C(=O)CC(C)(C)C2)C1c1ccc(OC)c(OC)c1 (stereo not drawn) [compound 80] | 9.53 µM | > 33.3 µM | – | – | – |
| CC(=O)N1c2ccccc2NC2=C(C(=O)CC(c3ccccc3OCc3ccccc3)C2)C1c1cccc(OC(=O)c2ccc(Cl)cc2)c1 (single isomer, unassigned) [compound 192, 10-Acetyl-3-(2-benzyloxyphenyl)-11-[3-(4-chlorobenzoyloxy)phenyl]-2,3,4,5,10,11-hexahydro-dibenzo[b,e][1,4]diazepin-1-one] | – | – | – | – | EC50 ([1]; read-out: Replicon Assay EC50, Huh-Luc cells, three days incubation, luciferase activity): 4.87 µM; IC50 ([2]; read-out: NS5B Polymerase Assay IC50, 200 nM enzyme, 3H-GTP incorporation, 2 h at 25° C.): > 42.7 µM |
| COc1c(Cl)cc(Cl)cc1C1C2=C(CC(C)(C)CC2=O)Nc2ccccc2N1C(=O)C(C)C (stereo not drawn) [compound 62] | 22.6 µM | > 42.7 µM | – | – | – |
| CC1(C)CC(=O)C2=C(C1)Nc1ccccc1NC2/C(Cl)=C/c1ccccc1 (racemic) [compound 506, 11-(1-Chloro-2-phenylvinyl)-3,3-dimethyl-2,3,4,5,10,11-hexahydro-dibenzo[b,e][1,4]diazepin-1-one] | – | – | 56.7 µM | > 42.7 µM | – |
| CC1(C)CC(=O)C2=C(C1)Nc1ccccc1N(C(=O)C1CC1)C2c1cccs1 (stereo not drawn) [compound 252] | 4.76 µM | > 42.7 µM | – | – | – |

| Compound | EC50 [1, 3] | IC50 [2, 4] | EC50 [1, 5] | IC50 [2, 6] | other results |
| --- | --- | --- | --- | --- | --- |
| CC1(C)CC(=O)C2=C(C1)Nc1cc(Cl)c(Cl)cc1NC2c1ccc(Cl)cc1Cl (stereo not drawn) [compound 465, 7,8-Dichloro-11-(2,4-dichlorophenyl)-2,3,4,5,10,11-hexahydro-3,3-dimethyl-1H-dibenzo[b,e][1,4]diazepin-1-one] | – | – | 3.84 µM | 60 µM | – |
| COc1cccc(C2C3=C(CC(C)(C)CC3=O)Nc3ccccc3N2C(=O)Cc2ccccc2)c1 (stereo not drawn) [compound 82] | 6.8 µM | > 42.7 µM | – | – | – |
| CCn1c2ccccc2c2cc(C3Nc4ccccc4NC4=C3C(=O)CC(C)(C)C4)ccc21 (stereo not drawn) [compound 501] | – | – | 19.8 µM | > 42.7 µM | – |
| COc1ccc(C2CC(=O)C3=C(C2)Nc2ccccc2N(C(=O)c2ccccc2)C3c2ccc(Cl)cc2)cc1OC (mixture of isomers) [compound 218] | – | – | – | – | EC50 [1, 7]: 14.8 µM; IC50 [2, 8]: > 33.3 µM |
| COc1ccc(C2CC(=O)C3=C(C2)Nc2ccccc2NC3c2cc(Br)ccc2OC)cc1 (stereo not drawn) [compound 335] | – | – | 11.9 µM | > 42.7 µM | – |
| CC(=O)N1c2ccccc2NC2=C(C(=O)CC(C)(C)C2)C1c1cc2c(cc1Br)OCO2 (stereo not drawn) [compound 277] | 13.6 µM | > 42.7 µM | – | – | – |
| CC1(C)CC(=O)C2=C(C1)Nc1ccccc1NC2c1ccc([N+](=O)[O-])cc1 (stereo not drawn) [compound 448] | – | – | > 100 µM | > 133 µM | – |
| COc1ccc(C2CC(=O)C3=C(C2)Nc2ccccc2NC3c2ccc(Cl)cc2)cc1OC (stereo not drawn) [compound 415] | – | – | 14.7 µM | > 33.3 µM | – |
| COc1ccc(C2C3=C(CC(C)(C)CC3=O)Nc3ccccc3N2C(=O)CSc2nc3ccccc3s2)cc1 (stereo not drawn) [compound 21] | 14.2 µM | > 42.7 µM | – | – | – |
| CCOc1ccccc1C1Nc2ccccc2NC2=C1C(=O)CC(c1ccccc1)C2 (stereo not drawn) [compound 393] | – | – | 6.84 µM | > 33.3 µM | – |
| CC1(C)CC(=O)C2=C(C1)Nc1ccccc1NC2c1ccc(C(F)(F)F)cc1 (stereo not drawn) [compound 429] | – | – | > 31 µM | > 42.7 µM | – |
| COc1ccc(C2CC(=O)C3=C(C2)Nc2ccccc2NC3c2ccc(OCc3ccccc3)c(OC)c2)cc1OC (stereo not drawn) [compound 405] | – | – | 5.34 µM | > 42.7 µM | – |
| CC1(C)CC(=O)C2=C(C1)Nc1ccccc1NC2c1cccc(Oc2ccccc2)c1 (stereo not drawn) [compound 433, 11-(3-phenoxyphenyl)-3,3-dimethyl-2,3,4,5,10,11-hexahydro-1H-dibenzo[b,e][1,4]diazepin-1-one] | – | – | 3.81 µM | > 133 µM | – |
| CC1(C)CC(=O)C2=C(C1)Nc1ccccc1N(C(=O)c1ccccc1F)C2c1ccccc1OCc1ccccc1 (stereo not drawn) [compound 27] | 20.7 µM | > 42.7 µM | – | – | – |
| Cc1ccc(C2Nc3ccccc3NC3=C2C(=O)CC(c2ccccc2)C3)cc1 (stereo not drawn) [compound 344] | – | – | 21.6 µM | > 42.7 µM | – |
| CCCCCC(=O)N1c2ccccc2NC2=C(C(=O)CC(c3cccc([N+](=O)[O-])c3)C2)C1c1ccc(OC)c(OC)c1 (stereo not drawn) [compound 174] | – | – | – | – | EC50 [1, 7]: 1.85 µM; IC50 [2, 8]: > 42.7 µM |
| COc1ccc(C2C3=C(CC(C)(C)CC3=O)Nc3ccccc3N2C(=O)C(F)(F)F)c(OC)c1 (stereo not drawn) [compound 58] | 8.78 µM | > 42.7 µM | – | – | – |
| CC1(C)CC(=O)C2=C(C1)Nc1ccccc1N(C(=O)c1ccc(Br)cc1)C2c1ccco1 (stereo not drawn) [compound 254] | 15.3 µM | > 42.6 µM | – | – | – |
| CCC(=O)N1c2ccccc2NC2=C(C(=O)CC(C)(C)C2)C1c1cccc(Cl)c1Cl (stereo not drawn) [compound 40] | > 24.7 µM | > 42.7 µM | – | – | – |
| CC1(C)CC(=O)C2=C(C1)Nc1ccccc1NC2c1ccc(O)cc1 (stereo not drawn) [compound 440, 3,3-dimethyl-11-(4-hydroxyphenyl)-2,3,4,5,10,11-hexahydro-1H-dibenzo[b,e][1,4]diazepin-1-one] | – | – | > 100 µM | > 133 µM | – |
| COc1ccc(C2CC(=O)C3=C(C2)Nc2ccccc2NC3c2cc([N+](=O)[O-])ccc2Cl)cc1 (stereo not drawn) [compound 375] | – | – | 19.9 µM | > 42.7 µM | – |
| O=C1CC(c2ccc(Cl)cc2)CC2=C1C(c1cccc(Cl)c1)N(C(=O)c1ccccc1)c1ccccc1N2 (mixture of isomers) [compound 203] | – | – | – | – | EC50 [1, 7]: 9.94 µM; IC50 [2, 8]: > 33.3 µM |
